Source: PubChem BioAssay (NCI)
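96-well plates; 48 h exposure; 5 concentrations. Endpoints by linear interpolation between flanking doses. Not reached: highest tested concentration assigned. TGI: concentration producing complete growth inhibition.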

What was measured:
Assay in all cases: NCI tumour cell line growth inhibition, 48 h
[1] = system: BT-549 breast
[2] = system: DU-145 prostate
[3] = system: HOP-62 NSCLC
[4] = system: HT29 colon
[5] = system: M14 melanoma
[6] = system: MALME-3M melanoma
[7] = system: NCI-H226 lung
[8] = system: NCI-H460 lung
[9] = system: NCI-H522 lung
[10] = system: SF-295 CNS
[11] = system: SK-MEL-28 melanoma
[12] = system: SK-MEL-5 melanoma
[13] = system: SW-620 colon

Row | Compound | TGI [1] | TGI [2] | TGI [3] | TGI [4] | TGI [5] | TGI [6] | TGI [7] | TGI [8] | TGI [9] | TGI [10] | TGI [11] | TGI [12] | TGI [13]
1 | COc1cc(C2SCC(=O)N2c2ccc(Cl)cc2)cc(OC)c1OC (configuration not stated) | > 100 µM | > 100 µM | > 100 µM | > 41 µM | > 57.8 µM | > 100 µM | 98.4 µM | > 100 µM | > 100 µM | > 100 µM | > 100 µM | > 100 µM | > 100 µM
2 | O=C(/C=C/c1ccc(Cl)cc1)c1nc2ccccc2[nH]1 | > 100 µM | 33.1 µM | 50.1 µM | 63.4 µM | > 100 µM | > 100 µM | > 100 µM | > 100 µM | > 100 µM | > 100 µM | > 100 µM | > 100 µM | 53.1 µM
3 | CCOC(=O)Cc1ccc(Nc2nc3cc(F)c(F)cc3nc2C(=O)OCC)cc1 | > 100 µM | > 100 µM | > 100 µM | > 100 µM | > 100 µM | > 100 µM | > 100 µM | > 100 µM | 35.5 µM | > 100 µM | > 100 µM | > 100 µM | > 100 µM
4 | CC1=C(N2CC2)C(=O)C(C)=C(N2CC2)C1=O | 5.14 µM | 4.69 µM | 1.09 µM | 1 µM | 1.25 µM | 0.541 µM | 1.18 µM | 0.634 µM | 0.423 µM | 1.47 µM | 1.26 µM | 0.363 µM | 3.41 µM
5 | CC(C)C1CCC(=O)CC1CCCCC1CC(=O)CC1O[Si](C)(C)C(C)(C)C (configuration not stated) | 13.3 µM | 39.1 µM | 33.7 µM | 10.3 µM | 43.4 µM | 19.1 µM | 15.5 µM | > 100 µM | 4.02 µM | 25.5 µM | 19.7 µM | 12.6 µM | > 26.5 µM
6 | O=C(Nc1ccccc1)c1cc2cc(CCl)ccc2oc1=O | > 100 µM | > 100 µM | > 100 µM | > 100 µM | > 100 µM | > 100 µM | > 100 µM | > 100 µM | > 100 µM | > 100 µM | > 100 µM | > 100 µM | > 100 µM
7 | Cc1ccc(C(CCO)CCO)nc1 | > 100 µM | > 100 µM | > 100 µM | > 100 µM | > 100 µM | > 100 µM | > 100 µM | > 100 µM | > 100 µM | > 100 µM | > 100 µM | > 100 µM | > 100 µM
8 | C/C1=C\CC[C@@]2(C)O[C@@H]2C[C@@H]2[C@H](C/C(C)=C/CC1)OC(=O)[C@]21CO1 | > 100 µM | > 100 µM | > 100 µM | > 100 µM | > 100 µM | > 100 µM | > 100 µM | 45.1 µM | > 100 µM | > 100 µM | > 100 µM | > 100 µM | > 100 µM
9 | CCOC(=O)CN1C(=O)c2c(NC(=O)C(=O)O)cccc2S1(=O)=O | > 100 µM | > 100 µM | > 100 µM | > 100 µM | > 100 µM | > 100 µM | > 100 µM | > 100 µM | > 100 µM | > 100 µM | > 100 µM | > 100 µM | > 100 µM
10 | Cc1nnc(N)nc1C/C=C/C(C)Sc1ccc(Cl)cc1 (configuration not stated) | > 67.2 µM | 38.1 µM | 25.4 µM | 43.8 µM | 26 µM | 33.7 µM | 7.69 µM | 30.3 µM | 16.1 µM | 11.8 µM | 45 µM | 22.9 µM | > 48 µM
11 | COc1ccc(C(SCCO)(c2ccc(OC)cc2)c2ccc(OC)cc2)cc1 | 38.4 µM | > 100 µM | 44.6 µM | 46 µM | 38.5 µM | 34.3 µM | 32.7 µM | 35.8 µM | 28.2 µM | 39.2 µM | 38.6 µM | 24.6 µM | 81.1 µM
12 | COc1ccc2nc3c([N+](=O)[O-])ccc4c3c(c2c1)N=CN4CCN(C)C | 28.6 µM | 15.8 µM | 15.3 µM | 14.4 µM | 18.7 µM | 14.5 µM | 20.3 µM | > 34.1 µM | 9.68 µM | 21.7 µM | 39.5 µM | 7.81 µM | > 42.6 µM
13 | CCOC(=O)C(CCSC)(CCSC)C(=O)OCC | > 100 µM | > 100 µM | > 100 µM | > 100 µM | > 100 µM | > 100 µM | > 100 µM | > 100 µM | > 100 µM | > 100 µM | > 100 µM | > 100 µM | > 100 µM
14 | Cc1cnc2c(c1)C(=O)N(c1ccc(Br)cc1)S2(=O)=O | > 100 µM | > 100 µM | > 100 µM | > 100 µM | > 100 µM | > 100 µM | > 100 µM | > 100 µM | > 100 µM | > 100 µM | > 100 µM | > 100 µM | > 100 µM
